Values belong to the compound of their own block, whether it stands above or below them. The source made the active and inactive calls. Unless noted, the rule behind the calls is not given here.
Tests used:
Aminopeptidase N = target: T1, Aminopeptidase N (Plasmodium falciparum FcB1/Columbia, UniProt O96935); assay: P. falciparum M1AAP inhibitors, biochemical, fluorogenic H-Leu-NHMec substrate, 1536-well (AID 1445); design: species or system Plasmodium falciparum 3D7, 3D7
T1 sequence (O96935 whole entry): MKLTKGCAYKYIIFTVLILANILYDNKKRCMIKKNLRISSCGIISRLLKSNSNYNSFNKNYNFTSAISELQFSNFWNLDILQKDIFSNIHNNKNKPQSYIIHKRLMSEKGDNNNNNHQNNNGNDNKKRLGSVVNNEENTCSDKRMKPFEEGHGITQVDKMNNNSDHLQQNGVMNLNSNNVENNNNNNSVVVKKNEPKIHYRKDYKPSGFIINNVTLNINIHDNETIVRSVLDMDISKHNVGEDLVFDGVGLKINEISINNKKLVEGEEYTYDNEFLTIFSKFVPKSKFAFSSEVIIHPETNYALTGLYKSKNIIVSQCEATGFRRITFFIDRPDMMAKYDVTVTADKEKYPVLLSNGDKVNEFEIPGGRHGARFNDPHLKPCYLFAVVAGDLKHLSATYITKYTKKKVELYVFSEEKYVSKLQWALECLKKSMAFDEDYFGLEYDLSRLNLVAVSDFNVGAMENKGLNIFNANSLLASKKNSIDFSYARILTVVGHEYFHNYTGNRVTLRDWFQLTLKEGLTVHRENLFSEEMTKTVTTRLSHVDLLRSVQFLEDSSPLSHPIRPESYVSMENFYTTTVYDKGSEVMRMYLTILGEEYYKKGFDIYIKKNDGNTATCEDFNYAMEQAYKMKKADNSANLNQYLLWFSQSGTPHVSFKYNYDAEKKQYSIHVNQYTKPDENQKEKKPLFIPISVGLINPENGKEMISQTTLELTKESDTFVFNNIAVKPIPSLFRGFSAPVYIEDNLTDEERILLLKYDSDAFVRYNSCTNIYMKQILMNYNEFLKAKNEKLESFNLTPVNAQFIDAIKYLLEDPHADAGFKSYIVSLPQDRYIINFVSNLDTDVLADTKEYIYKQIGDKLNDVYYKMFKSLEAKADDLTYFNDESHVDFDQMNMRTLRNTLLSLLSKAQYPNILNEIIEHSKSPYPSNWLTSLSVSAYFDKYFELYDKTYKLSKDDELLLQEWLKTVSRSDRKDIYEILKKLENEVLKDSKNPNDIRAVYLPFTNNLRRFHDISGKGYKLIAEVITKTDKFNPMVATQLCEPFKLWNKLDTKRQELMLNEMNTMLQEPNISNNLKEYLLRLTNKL

[1] = Artemis endonuclease inhibitor potency, dose response, biochemical, fluorescence intensity (AID 720701); assay type: functional;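 also: Artemis endonuclease enzyme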
Leucine aminopeptidase = target: T2, Leucine aminopeptidase (Plasmodium falciparum 3D7, UniProt Q8IL11); assay: P. falciparum M17LAP inhibitors, primary screen, biochemical, fluorogenic H-Leu-NHMec substrate, 1536-well (AID 1619); assay type: functional
T2 sequence (Q8IL11 whole entry): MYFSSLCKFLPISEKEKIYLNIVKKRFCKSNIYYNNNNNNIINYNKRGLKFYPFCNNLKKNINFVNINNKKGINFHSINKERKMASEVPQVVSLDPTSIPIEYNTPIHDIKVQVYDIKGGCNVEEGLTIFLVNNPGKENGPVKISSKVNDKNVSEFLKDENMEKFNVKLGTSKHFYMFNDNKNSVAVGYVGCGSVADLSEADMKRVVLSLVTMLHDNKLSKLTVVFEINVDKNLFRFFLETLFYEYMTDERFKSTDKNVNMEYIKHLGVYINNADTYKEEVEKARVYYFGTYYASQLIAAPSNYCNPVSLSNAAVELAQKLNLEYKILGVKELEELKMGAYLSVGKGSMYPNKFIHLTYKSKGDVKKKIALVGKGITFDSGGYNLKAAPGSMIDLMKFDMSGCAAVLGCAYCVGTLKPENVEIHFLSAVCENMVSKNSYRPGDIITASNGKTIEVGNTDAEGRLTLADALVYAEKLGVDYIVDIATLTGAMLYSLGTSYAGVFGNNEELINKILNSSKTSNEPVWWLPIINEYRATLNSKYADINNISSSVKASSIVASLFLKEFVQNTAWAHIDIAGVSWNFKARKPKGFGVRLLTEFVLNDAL

[2] = inhibitors of Vif binding to APOBEC3G peptide, primary screen, biochemical, TR-FRET, GST-Vif 1-94, biotin-A3G peptide, dose response retest (AID 1117319); assay type: functional;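 also: TR-FRET signal of purified GST-Vif binding a biotinylated A3G peptide; inhibitors lower the FRET signal by blocking Vif and A3G binding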
D(2) dopamine receptor [3] = target: T3, D(2) dopamine receptor (Homo sapiens, UniProt P14416); assay: Counterscreening of D4 Antagonists against Dopamine 2S (Human), Confirmatory Assay.; assay type: functional
D(3) dopamine receptor = D(3) dopamine receptor (Homo sapiens, UniProt P35462); assay: Counterscreening of D4 Antagonists against Dopamine 3 DRD3 (Human), Confirmatory Assay.; assay type: functional
D(2) dopamine receptor [4] = target: T3, D(2) dopamine receptor; assay: D2L dopamine receptor antagonism, confirmation, counter-screen for D4 antagonist project, cell-based, D2L isoform, human (AID 743377); assay type: functional
D(1A) dopamine receptor = D(1A) dopamine receptor (Homo sapiens, UniProt P21728); assay: Counterscreening of D4 Antagonists against Dopamine 1 (Human), Confirmatory Assay.; assay type: functional
D(1B) dopamine receptor = D(1B) dopamine receptor (Homo sapiens, UniProt P21918); assay: Counterscreening of D4 Antagonists against Dopamine 5 DRD5 (Human), Confirmatory Assay.; assay type: functional
[5] = target: G-protein coupled receptor 183 (Homo sapiens, UniProt P32249); assay: SAR confirmation of small molecule antagonists of the EBI2 receptor via a luminescent beta-arrestin assa.; assay type: functional
[6] = P. falciparum Dd2 growth inhibitors, dose response, SYBR Green, dry powder samples, set 9 (AID 1159568); assay type: functional, cell-based

T3 sequence (P14416 whole entry): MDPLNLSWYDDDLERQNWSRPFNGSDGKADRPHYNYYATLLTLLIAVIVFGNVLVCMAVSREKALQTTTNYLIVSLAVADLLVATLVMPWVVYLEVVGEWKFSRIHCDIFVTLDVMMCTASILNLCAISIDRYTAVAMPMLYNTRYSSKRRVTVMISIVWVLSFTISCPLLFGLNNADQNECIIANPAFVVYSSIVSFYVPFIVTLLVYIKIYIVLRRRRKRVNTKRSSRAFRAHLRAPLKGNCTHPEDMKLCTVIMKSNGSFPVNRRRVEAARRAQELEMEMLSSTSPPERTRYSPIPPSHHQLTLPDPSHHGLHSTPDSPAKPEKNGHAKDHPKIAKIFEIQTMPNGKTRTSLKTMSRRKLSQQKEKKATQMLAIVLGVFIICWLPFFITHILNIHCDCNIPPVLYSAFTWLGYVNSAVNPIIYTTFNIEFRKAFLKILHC
Chain of G-protein coupled receptor 183 (P32249 whole entry): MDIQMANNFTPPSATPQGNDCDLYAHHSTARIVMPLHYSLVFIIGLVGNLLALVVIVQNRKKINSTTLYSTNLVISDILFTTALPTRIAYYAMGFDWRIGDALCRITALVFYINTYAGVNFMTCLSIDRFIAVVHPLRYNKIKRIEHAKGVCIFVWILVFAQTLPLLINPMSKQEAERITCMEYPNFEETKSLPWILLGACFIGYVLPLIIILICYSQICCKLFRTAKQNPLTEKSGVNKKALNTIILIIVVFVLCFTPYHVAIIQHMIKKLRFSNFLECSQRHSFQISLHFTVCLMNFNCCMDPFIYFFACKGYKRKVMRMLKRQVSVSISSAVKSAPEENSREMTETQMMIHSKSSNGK
Chain of D(3) dopamine receptor (P35462 whole entry, canonical isoform): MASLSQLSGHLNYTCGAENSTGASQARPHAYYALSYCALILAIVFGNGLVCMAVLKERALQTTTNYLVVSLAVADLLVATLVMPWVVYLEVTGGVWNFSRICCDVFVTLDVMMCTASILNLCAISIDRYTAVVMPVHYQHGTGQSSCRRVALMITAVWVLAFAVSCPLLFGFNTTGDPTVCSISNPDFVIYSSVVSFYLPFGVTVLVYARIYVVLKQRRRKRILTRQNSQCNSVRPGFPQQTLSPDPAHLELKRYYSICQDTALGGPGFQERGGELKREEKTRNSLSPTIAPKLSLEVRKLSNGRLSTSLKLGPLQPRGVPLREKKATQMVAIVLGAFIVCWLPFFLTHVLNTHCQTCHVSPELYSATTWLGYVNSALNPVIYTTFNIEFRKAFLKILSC
Chain of D(1A) dopamine receptor (P21728 whole entry): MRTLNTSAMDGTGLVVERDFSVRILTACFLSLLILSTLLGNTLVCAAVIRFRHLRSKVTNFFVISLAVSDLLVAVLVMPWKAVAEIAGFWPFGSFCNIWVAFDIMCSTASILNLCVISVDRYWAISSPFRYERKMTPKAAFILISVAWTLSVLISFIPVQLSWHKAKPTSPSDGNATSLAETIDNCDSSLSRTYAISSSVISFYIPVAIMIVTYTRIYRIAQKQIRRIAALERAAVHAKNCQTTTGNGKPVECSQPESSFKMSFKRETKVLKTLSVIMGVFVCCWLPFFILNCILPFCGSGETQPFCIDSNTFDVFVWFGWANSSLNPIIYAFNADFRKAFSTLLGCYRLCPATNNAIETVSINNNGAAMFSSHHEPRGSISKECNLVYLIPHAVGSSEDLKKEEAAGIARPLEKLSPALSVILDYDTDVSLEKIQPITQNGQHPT
Chain of D(1B) dopamine receptor (P21918 whole entry): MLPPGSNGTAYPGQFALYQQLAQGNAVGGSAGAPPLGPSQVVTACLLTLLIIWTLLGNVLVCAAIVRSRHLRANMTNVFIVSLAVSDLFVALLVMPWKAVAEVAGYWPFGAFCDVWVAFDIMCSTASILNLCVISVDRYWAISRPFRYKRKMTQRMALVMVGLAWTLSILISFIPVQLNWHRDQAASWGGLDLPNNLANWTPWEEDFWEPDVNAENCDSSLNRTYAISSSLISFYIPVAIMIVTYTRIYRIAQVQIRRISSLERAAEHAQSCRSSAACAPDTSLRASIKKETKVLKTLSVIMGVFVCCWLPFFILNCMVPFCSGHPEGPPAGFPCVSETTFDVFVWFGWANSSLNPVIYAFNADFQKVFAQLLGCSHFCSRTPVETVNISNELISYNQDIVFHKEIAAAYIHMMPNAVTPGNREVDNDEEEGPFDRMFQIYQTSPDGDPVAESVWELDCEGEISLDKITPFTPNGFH

IC50 (Aminopeptidase N): 10.4 µM (active)
IC50 [1]: 1.4 µM (active)
IC50 (Leucine aminopeptidase): 43.4 µM (active)
SMILES: O=C(Cc1ccsc1-c1ccccc1)NO

IC50 [2]: > 100 µM (active)
SMILES: COc1ccc(Nc2nc(N)nc(CSC(=S)N3CCN(c4ccccc4)CC3)n2)cc1

IC50 (D(2) dopamine receptor [3]): 20 µM (inactive)
IC50 (D(3) dopamine receptor): 8.17 µM (active)
IC50 (D(2) dopamine receptor [4]): 16.5 µM (active)
IC50 (D(1A) dopamine receptor): 20 µM (inactive)
IC50 (D(1B) dopamine receptor): 20 µM (inactive)
SMILES: COc1ccc(CN2CCO[C@@H](CCc3ccccc3)C2)cc1

IC50 [5]: 0.00343 µM (active)
SMILES: O=C(/C=C/c1ccc(F)cc1)N1CCN(S(=O)(=O)c2ccc(Br)cc2)CC1

SMILES: COc1ccc(NC(=O)N2CCCCN3[C@H](CO)[C@@H](c4ccc(-c5ccccc5F)cc4)[C@H]3C2)cc1
AC50 [6]: 1.81 µM (active)

— ChEMBL document CHEMBL1201862, “PubChem BioAssay data set” (2004)
